Reference: US6919349B2, “Spiro compounds and adhesion molecule inhibitors containing the same as the active ingredient” (Toray Industries, Inc., priority 2000, dated 2005)

The molecules below were run against VLA-4-IgG chimera protein (Homo sapiens, UniProt P05556+P13612) (assay: Inhibitory effect against binding between CS-1 peptide and VLA-4-IgG chimera protein). Conditions: binding of VLA-4-IgG chimera protein to immobilized CS-1 peptide conjugate; compound pre-reacted with chimera protein 20 min; 30° C. 3 hours; absorbance 490 nm.
Sequence of VLA-4-IgG chimera protein (P13612 with tags, fused parts or gaps limits assumed): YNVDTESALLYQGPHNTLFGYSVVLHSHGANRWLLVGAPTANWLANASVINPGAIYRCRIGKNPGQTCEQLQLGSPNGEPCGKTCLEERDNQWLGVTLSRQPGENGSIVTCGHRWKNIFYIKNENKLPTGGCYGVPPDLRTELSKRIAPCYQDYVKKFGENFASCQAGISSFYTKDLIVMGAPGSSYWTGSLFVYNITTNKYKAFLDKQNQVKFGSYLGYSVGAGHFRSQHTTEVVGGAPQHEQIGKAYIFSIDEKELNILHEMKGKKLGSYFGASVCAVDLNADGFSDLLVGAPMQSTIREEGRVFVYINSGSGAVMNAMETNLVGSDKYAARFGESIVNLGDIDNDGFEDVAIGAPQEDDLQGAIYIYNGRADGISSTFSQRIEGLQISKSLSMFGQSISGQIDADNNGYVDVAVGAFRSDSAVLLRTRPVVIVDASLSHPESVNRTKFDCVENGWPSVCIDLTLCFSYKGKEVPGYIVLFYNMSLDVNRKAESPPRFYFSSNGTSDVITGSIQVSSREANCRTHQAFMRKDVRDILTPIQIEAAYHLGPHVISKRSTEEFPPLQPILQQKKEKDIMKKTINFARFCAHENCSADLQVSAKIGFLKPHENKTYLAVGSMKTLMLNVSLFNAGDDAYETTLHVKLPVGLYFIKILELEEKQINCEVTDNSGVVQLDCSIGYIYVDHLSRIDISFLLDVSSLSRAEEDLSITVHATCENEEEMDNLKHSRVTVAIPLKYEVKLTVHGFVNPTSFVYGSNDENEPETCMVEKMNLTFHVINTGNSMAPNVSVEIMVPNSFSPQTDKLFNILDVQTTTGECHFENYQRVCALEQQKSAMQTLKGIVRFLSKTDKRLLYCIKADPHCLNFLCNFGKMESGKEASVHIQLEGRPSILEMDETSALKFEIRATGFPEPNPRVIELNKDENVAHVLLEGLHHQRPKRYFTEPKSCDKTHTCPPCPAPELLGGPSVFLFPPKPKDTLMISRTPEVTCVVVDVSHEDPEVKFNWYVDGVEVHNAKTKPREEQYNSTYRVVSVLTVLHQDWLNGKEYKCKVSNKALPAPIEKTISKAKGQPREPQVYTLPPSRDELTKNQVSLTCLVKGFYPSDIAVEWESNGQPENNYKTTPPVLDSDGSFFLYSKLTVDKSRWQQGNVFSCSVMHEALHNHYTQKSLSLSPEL
Sequence of VLA-4-IgG chimera protein (P05556 with tags, fused parts or gaps limits assumed): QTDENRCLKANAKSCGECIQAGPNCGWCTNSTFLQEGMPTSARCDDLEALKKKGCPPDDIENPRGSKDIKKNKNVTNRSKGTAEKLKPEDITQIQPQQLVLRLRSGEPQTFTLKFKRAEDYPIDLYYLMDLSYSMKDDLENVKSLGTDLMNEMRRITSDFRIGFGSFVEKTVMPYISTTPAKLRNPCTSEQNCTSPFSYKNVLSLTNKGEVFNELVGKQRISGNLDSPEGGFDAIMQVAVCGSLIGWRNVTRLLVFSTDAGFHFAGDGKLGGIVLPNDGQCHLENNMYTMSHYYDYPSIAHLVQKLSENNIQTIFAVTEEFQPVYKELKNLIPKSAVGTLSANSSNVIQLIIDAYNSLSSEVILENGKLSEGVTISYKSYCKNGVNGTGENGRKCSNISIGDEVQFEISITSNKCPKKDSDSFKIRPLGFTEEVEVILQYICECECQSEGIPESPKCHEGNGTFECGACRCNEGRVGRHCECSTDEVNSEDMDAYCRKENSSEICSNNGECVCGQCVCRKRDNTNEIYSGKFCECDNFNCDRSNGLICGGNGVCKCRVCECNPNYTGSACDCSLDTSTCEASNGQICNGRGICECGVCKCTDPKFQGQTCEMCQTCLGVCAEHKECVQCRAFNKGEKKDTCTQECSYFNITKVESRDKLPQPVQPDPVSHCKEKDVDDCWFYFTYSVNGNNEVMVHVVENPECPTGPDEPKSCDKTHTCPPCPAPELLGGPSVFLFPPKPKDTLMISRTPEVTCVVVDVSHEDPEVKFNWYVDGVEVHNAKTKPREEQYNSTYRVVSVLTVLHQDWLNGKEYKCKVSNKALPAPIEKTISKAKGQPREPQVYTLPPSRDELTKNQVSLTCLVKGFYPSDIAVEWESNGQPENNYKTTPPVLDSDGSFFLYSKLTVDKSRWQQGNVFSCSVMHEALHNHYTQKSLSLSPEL
Experimental: The inhibitory activity of the compound according to the present invention against the adhesion of VLA-4 may be determined by using an adhesion-measuring system in which the adhesion between VLA-4-expressing cells such as Ramos cells or Jurkat cells and fibronectin or fibronectin fragment such as a peptide containing CS-1 sequence (Gly Pro Glu Ile Leu Asp Val Pro Ser Thr) (hereinafter referred to as “CS-1 peptide”), immobilized on an immunoplate is measured. Alternatively, a binding-measuring system in which the adhesion between VLA-4 protein and fibronectin or fibronectin fragment such as CS-1 peptide, immobilized on an immunoplate may be used. In the present invention, it is preferred to evaluate the inhibitory activity of a compound using a binding-measuring system in which adhesion between a chimera protein of VLA-4-immunoglobulin (VLA-4-IgG chimera protein) and CS-1 peptide (Japanese Patent Application No. H9-234544), but the method is not restricted thereto. The “VLA-4-IgG chimera protein” herein means the heterodimer complex of the chimera protein between α4 of VLA-4 and immunoglobulin (hereinafter referred to as “VLAα4-IgG chimera protein”) and a chimera protein between β1 of VLA-4 and immunoglobulin (hereinafter referred to as “VLAβ1-IgG chimera protein”). As the immunoglobulin, although heavy chain or light chain of IgG, IgM or the like may be used, IgG1 heavy chain is used in the present invention. When testing the inhibitory effect of a compound, it is preferred to mix VLA-4-IgG chimera protein and the test compound previously.
In accordance with the teaching of a report (Humphrise, M. J. et al. J.Bio.Chem.,262,6886-6892(1987)), a conjugate between a peptide (Gys Leu His Gly Pro Glu Glu Ile Leu Asp Val Pro Ser Thr) containing CS-1 sequence and rabbit IgG (Sigma) was prepared. This was diluted with phosphate buffer (hereinafter referred to as “PBS(−)” for short), and the obtained solution was placed in the wells of a 96-well immunoplate (NUNC) in an amount of 100 μl/well, followed by leaving to stand the immunoplate at 4° C. for 16 hours to immobilize the conjugate.
The wells were then washed twice with PBS(−), and 1% BSA solution in PBS, which BSA was heated at 80° C. for 10 minutes, was placed in each well in an amount of 300 μl/well. The immunoplate was left to stand at 4° C. for 3 hours, and then the solution in each well was removed by suction.
Each compound and VLA-4-IgG chimera protein (100 μl) were preliminarily reacted at room temperature for 20 minutes, and then the resulting mixture was allowed to react with the CS-1peptide in each well at 30° C. for 3 hours. Thereafter, non-bound VLA-4-IgG chimera protein was removed by suction, and each well was washed twice with 0.1% BSA-containing TBS buffer (150 mM NaCl, 25 mM Tris-HCl, 1 mM MnCl2, PH7.4). To the bound VLA-4-IgG chimera protein, biotin-labelled anti-human IgG antibody (Vector) as a primary antibody was added, and then avidin-labelled horse radish peroxidase (Sigma) as a secondary antibody was added, thereby allowing the reactions. Then o-phenylenediamine as a substrate was added to color the reaction solution, and the absorbance at 490 nm was measured. From this absorbance, the binding inhibitory activity of each compound was determined.

| Structure (SMILES) | IC50 [nM] |
| --- | --- |
| O=C(N[C@@H](CNC(=O)N1CCC2(CC1)C(=O)NCN2c1ccccc1)C(=O)O)c1c(Cl)cccc1Cl [Compound 3, 3-((2,4,8-triaza-1-oxo-4-phenylspiro[4.5]dec-8-yl)carbonylamino)-2-((2,6-dichlorophenyl)carbonylamino)propanoic acid] | 6.1 |
| COc1cccc(OC)c1C(=O)N[C@@H](CNC(=O)N1CCC2(CC1)C(=O)N(Cc1ccccc1)CN2c1ccccc1)C(=O)O [Compound 7, 2-((2,6-dimethoxyphenyl)carbonylamino)-3-((2,4,8-triaza-1-oxo-4-phenyl-2-benzylspiro[4.5]dec-8-yl)carbonylamino)propanoic acid] | 18 |
| Cc1cccc(C)c1C(=O)N[C@@H](CNC(=O)N1CCC2(CC1)C(=O)N(Cc1ccccc1)CN2c1ccccc1)C(=O)O [Compound 13, 2-((2,6-dimethylphenyl)carbonylamino)-3-((2,4,8-triaza-1-oxo-4-phenyl-2-benzylspiro[4.5]dec-8-yl)carbonylamino)propanoic acid] | 2.9 |
| CC(C)C(=O)NC1(c2ccccc2)CCN(C(=O)N[C@@H](CNC(=O)N2CCC3(CC2)C(=O)N(Cc2ccccc2)CN3c2ccccc2)C(=O)O)CC1 [Compound 27] | 2.1 |
| O=C(O)[C@H](CNC(=O)N1CCC2(CC1)C(=O)N(Cc1ccccc1)CN2c1ccccc1)NC(=O)N1CCC(n2c(=O)[nH]c3ccccc32)CC1 [Compound 31, 2-((4-(2-oxo(3-hydrobenzimidazolyl))piperidyl)carbonylamino)-3-((2,4,8-triaza-1-oxo-4-phenyl-2-benzylspiro[4.5]dec-8-yl)carbonylamino)propanoic acid] | 0.98 |
